Results published in patent US11564924B2, “Pharmaceutical composition formed by combining pyridoxamine compound and thiamine compound” (RENASCIENCE CO., LTD., priority 2014, dated 2023).

What was measured:
Format in all cases: in vivo, human
[1] = system: Wernicke's encephalopathy; test: Wernicke's encephalopathy findings (MRI of the brain, symptoms) during drug administration
Method: Immediately after the patient was suspected of having Wernicke's encephalopathy, oral administration of a thiamine compound (fursultiamine (Takeda Pharmaceutical Company Limited)) at a dose of 75 mg/day was initiated (administered once a day) and continued every day.
Immediately after the patient was suspected of having Wernicke's encephalopathy, intravenous administration of a thiamine compound (fursultiamine (Takeda Pharmaceutical Company Limited)) (300 mg/day) was performed, and then (from 10 weeks after the start of drug administration), oral administration of the thiamine compound at a dose of 100 to 50 mg/day was continued.

schizophrenia patients = test: Total PANSS score in schizophrenia patients given the pyridoxamine compound; conditions: for Change from baseline in total PANSS score, Maximum / Change from baseline in total PANSS score, Median / Change from baseline in total PANSS score, Minimum / Change from baseline in total PANSS score, Mean change: FAS; for Change from baseline in total PANSS score, Mean change: 1200-2400 mg per day oral
Excerpt: The target subjects (subjects) of this test (administration of a pyridoxamine compound; hereinafter, this is also referred to as “drug administration”) were patients who were diagnosed with schizophrenia and met all of the following conditions (1) to (3):
Drug administration was initiated for nine subjects from whom consent was obtained. The observation period was defined as the period from the day on which consent was obtained (Day −14) to the day 2 weeks after the day of consent (Day 0), and the initial day of drug administration was defined as Day 1. The data of Day 1 is data immediately before the start of administration of the pyridoxamine compound. The drug administration period was defined as the 24-week period from the start of drug administration (Day 1 to Day 169).
In the drug administration, pyridoxamine dihydrochloride was used as the pyridoxamine compound and orally administered in an amount of 1200 mg, 1800 mg, or 2400 mg per day (administered three times a day, morning, noon, and before bedtime, in an amount of 400 mg, 600 mg, or 800 mg each time). In the drug administration period, the dose was increased or decreased within the above range according to the condition of each patient.
The effect of administration of the pyridoxamine compound (drug administration) was evaluated according to the Positive and Negative Syndrome Scale (PANSS) score and the concentration of pentosidine in blood of the schizophrenia patients.
The PANSS score was determined by SCI-PANSS, which uses a structured interview, according to the Positive and Negative Syndrome Scale (PANSS) manual (translated by Hiroshi Yamada, Kanji Masui, and Hirotsugu Kikumoto; Tokyo: Seiwa Shoten Co., Ltd., 1991). An interview for evaluation was conducted for 30 evaluation items. Each item was scored on a scale of 1 to 7. The sum of the scores was calculated, and the difference between the PANSS score on Day 1 and the PANSS score on each test day was determined. […] The subjects were prohibited from taking hypnotic drugs or antianxiety drugs within 4 hours before PANSS evaluation.

[2] = Serum pyridoxamine and pyridoxal concentrations in schizophrenia patients during drug administration
Method: Measurement of the serum pyridoxamine concentration, the serum pyridoxal concentration, and the serum pyridoxine concentration was outsourced to SRL Inc. or Mitsubishi Chemical Medience Corporation (now LSI Medience Corporation).
Pyridoxamine dihydrochloride was orally administered as a pyridoxamine compound to schizophrenia patients daily, three times a day (morning, noon, and before bedtime) in an amount of 400 mg or 600 mg each time (daily dose of pyridoxamine: about 830 mg or 1250 mg) according to the protocols shown in FIG. 2 (described as “PM dose (mg/one time)” in FIG. 2).

[3] = Blood kinetics of pyridoxamine compound in people with reduced renal function; conditions: 150 mg pyridoxamine dihydrochloride oral
Method: As described in Experiment Example 1 above, administration of a pyridoxamine compound increases not only the blood pyridoxamine concentration, but also the blood pyridoxal concentration. Rather, in blood, the pyridoxal concentration was higher than the pyridoxamine concentration. Thus, changes in the serum concentrations of pyridoxamine, pyridoxal, pyridoxine, and 4-pyridoxic acid after administration of a pyridoxamine compound were observed over time.
More specifically, 150 mg of pyridoxamine dihydrochloride was orally administered to each of six people with reduced renal function (subjects) (average age: 56 years old, average body weight: 67 kg). Blood was collected 0.5, 1, 1.5, 2, 2.5, 3, 4, 5, 6, 8, 10, and 12 hours after the administration, and the serums were collected. Measurement of the serum concentrations of pyridoxamine, pyridoxal, pyridoxine, and 4-pyridoxic acid was outsourced to Shin Nippon Biomedical Laboratories, Ltd.

vitamin B1 deficiency = test: Prevention of vitamin B1 deficiency by pyridoxamine compound in combination with thiamine compound; conditions: seven schizophrenia patients; pyridoxamine dihydrochloride 1200 to 1800 mg per day oral for 24 weeks, with fursultiamine 75 mg/day oral from 2 to 21 weeks after start

- serum pyridoxamine concentration, times higher than at the start of drug administration ([2]; patient ID No. 3, 4 weeks after the start of drug administration): about 7700 times
- serum pyridoxamine concentration, times higher than at the start of drug administration ([2]; patient ID No. 6, 8 weeks after the start of drug administration): about 2100 times
- change in the concentration of pyridoxine (PN) ([3]; serum up to 12 hours): No large change
- time after administration at which the serum concentration of pyridoxamine (unchanged form) peaked ([3]; six people with reduced renal function): 2 h
Compound: Cc1ncc(CO)c(CN)c1O.Cl.Cl [pyridoxamine dihydrochloride]
- MRI of the brain finding during drug administration ([1]; patient ID No. 3, 6 weeks after the start of drug administration, after an epilepsy-like symptom): findings suggestive of Wernicke's encephalopathy
- MRI of the brain finding during drug administration ([1]; patient ID No. 6, 9 weeks after the start of drug administration): findings suggestive of Wernicke's encephalopathy
- Change from baseline in total PANSS score, Maximum (schizophrenia patients; Day 15 (2 w)): 12
- Change from baseline in total PANSS score, Median (schizophrenia patients; Day 15 (2 w)): 3.0
- Change from baseline in total PANSS score, Minimum (schizophrenia patients; Day 15 (2 w)): −44
- Change from baseline in total PANSS score, Mean change (schizophrenia patients; Day 15 (2 w)): −3.7
- Change from baseline in total PANSS score, Maximum (schizophrenia patients; Day 29 (4 w)): 10
- Change from baseline in total PANSS score, Median (schizophrenia patients; Day 29 (4 w)): 1.0
- Change from baseline in total PANSS score, Minimum (schizophrenia patients; Day 29 (4 w)): −49
- Change from baseline in total PANSS score, Mean change (schizophrenia patients; Day 29 (4 w)): −4.4
- Change from baseline in total PANSS score, Maximum (schizophrenia patients; Day 57 (8 w)): 13
- Change from baseline in total PANSS score, Median (schizophrenia patients; Day 57 (8 w)): 1.0
- Change from baseline in total PANSS score, Minimum (schizophrenia patients; Day 57 (8 w)): −58
- Change from baseline in total PANSS score, Mean change (schizophrenia patients; Day 57 (8 w)): −5.0
- Change from baseline in total PANSS score, Maximum (schizophrenia patients; Day 85 (12 w)): 21
- Change from baseline in total PANSS score, Median (schizophrenia patients; Day 85 (12 w)): −3.0
- Change from baseline in total PANSS score, Minimum (schizophrenia patients; Day 85 (12 w)): −65
- Change from baseline in total PANSS score, Mean change (schizophrenia patients; Day 85 (12 w)): −7.3
- Change from baseline in total PANSS score, Maximum (schizophrenia patients; Day 113 (16 w)): 8
- Change from baseline in total PANSS score, Median (schizophrenia patients; Day 113 (16 w)): −5.0
- Change from baseline in total PANSS score, Minimum (schizophrenia patients; Day 113 (16 w)): −69
- Change from baseline in total PANSS score, Mean change (schizophrenia patients; Day 113 (16 w)): −12.2
- Change from baseline in total PANSS score, Maximum (schizophrenia patients; Day 141 (20 w)): 17
- Change from baseline in total PANSS score, Median (schizophrenia patients; Day 141 (20 w)): −1.5
- Change from baseline in total PANSS score, Minimum (schizophrenia patients; Day 141 (20 w)): −64
- Change from baseline in total PANSS score, Mean change (schizophrenia patients; Day 141 (20 w)): −9.6
- Change from baseline in total PANSS score, Maximum (schizophrenia patients; Day 169 (24 w)): 14
- Change from baseline in total PANSS score, Median (schizophrenia patients; Day 169 (24 w)): −7.5
- Change from baseline in total PANSS score, Minimum (schizophrenia patients; Day 169 (24 w)): −69
- Change from baseline in total PANSS score, Mean change (schizophrenia patients; Day 169 (24 w)): −11.4
- Change from baseline in total PANSS score, Maximum (schizophrenia patients; Final evaluation time point): 14
- Change from baseline in total PANSS score, Median (schizophrenia patients; Final evaluation time point): −5.0
- Change from baseline in total PANSS score, Minimum (schizophrenia patients; Final evaluation time point): −69
- Change from baseline in total PANSS score, Mean change (schizophrenia patients; Final evaluation time point): −10.6
- PANSS score decreased by an average of (schizophrenia patients; day 15 after the start of drug administration (Day 15)): 3.7 points
- PANSS score decreased by an average of (schizophrenia patients; day 113 after the start of drug administration (Day 113)): 12.2 points
- effect on the symptom of schizophrenia (schizophrenia patients; schizophrenia patients, 24-week administration): effective in improving the symptom of schizophrenia
- findings suggestive of vitamin B1 deficiency (vitamin B1 deficiency): no findings suggestive of vitamin B1 deficiency were observed in any of the seven schizophrenia patients
